US10899709B2, “Novel-alkynyl-substituted 3-phenylpyrrolidine-2,4-diones and use thereof as herbicides” (BAYER CROPSCIENCE AKTIENGESELLSCHAFT, priority 2015, dated 2021)

Experiments:
Type in all cases: in vivo
Echinochloa crus-galli [1] = test: Post-emergence herbicidal effect; conditions: visual assessment after about 3 weeks
Experimental: (§1) Seeds of monocotyledonous and dicotyledonous weed and crop plants are laid out in sandy loam in wood-fibre pots, covered with soil and cultivated in a greenhouse under good growth conditions. 2 to 3 weeks after sowing, the test plants are treated at the one-leaf stage. The compounds according to the invention, formulated in the form of wettable powders (WP) or as emulsion concentrates (EC), are then sprayed as aqueous suspension or emulsion at a water application rate of 600 to 800 l/ha (converted) with the addition of 0.2% of wetting agent onto the green parts of the plants. After the test plants have been left to stand in the greenhouse under optimal growth conditions for about 3 weeks, the action of the preparations is assessed visually in comparison to untreated controls (herbicidal action in percent (%): 100% activity=the plants have died, 0% activity=like control plants).

Setaria viridis [2] = test: Post-emergence herbicidal effect; conditions: visual assessment after about 3 weeks
Experimental: as §1

Alopecurus myosuroides [3] = test: Post-emergence herbicidal effect; conditions: visual assessment after about 3 weeks
Experimental: as §1

Lolium multiflorum [4] = test: Post-emergence herbicidal effect; conditions: visual assessment after about 3 weeks
Experimental: as §1

Echinochloa crus-galli [5] = test: Pre-emergence herbicidal effect; conditions: visual score after 3 weeks
Source text: (§2) Seeds of monocotyledonous and dicotyledonous weed plants and crop plants are laid out in wood-fibre pots in sandy loam and covered with soil. The compounds according to the invention formulated in the form of wettable powders (WP) or as emulsion concentrates (EC) are then applied as aqueous suspension or emulsion at a water application rate of 600 to 800 l/ha (converted) with the addition of 0.2% wetting agent to the surface of the covering soil. After the treatment, the pots are placed in a greenhouse and kept under good growth conditions for the trial plants. The damage to the test plants is scored visually after a test period of 3 weeks by comparison with untreated controls (herbicidal activity in percent (%): 100% activity=the plants have died, 0% activity=like control plants).

Avena fatua [6] = test: Pre-emergence herbicidal effect; conditions: visual score after 3 weeks
Source text: as §2

Setaria viridis [7] = test: Pre-emergence herbicidal effect; conditions: visual score after 3 weeks
Source text: as §2

Alopecurus myosuroides [8] = test: Pre-emergence herbicidal effect; conditions: visual score after 3 weeks
Source text: as §2

Lolium multiflorum [9] = test: Pre-emergence herbicidal effect; conditions: visual score after 3 weeks
Source text: as §2

Avena fatua [10] = test: Post-emergence herbicidal effect; conditions: visual assessment after about 3 weeks
Experimental: as §1

Structure (SMILES)	Post-emergence effectiveness ECHCG (Echinochloa crus-galli [1]; 20 g/ha) [%]	Post-emergence effectiveness ECHCG (Echinochloa crus-galli [1]; 80 g/ha) [%]	Post-emergence effectiveness SETVI (Setaria viridis [2]; 20 g/ha) [%]	Post-emergence effectiveness SETVI (Setaria viridis [2]; 80 g/ha) [%]	Post-emergence effectiveness ALOMY (Alopecurus myosuroides [3]; 80 g/ha) [%]	Post-emergence effectiveness LOLMU (Lolium multiflorum [4]; 20 g/ha) [%]	Post-emergence effectiveness LOLMU (Lolium multiflorum [4]; 80 g/ha) [%]	Pre-emergence effectiveness ECHCG (Echinochloa crus-galli [5]; 80 g/ha) [%]	Pre-emergence effectiveness ECHCG (Echinochloa crus-galli [5]; 320 g/ha) [%]	Pre-emergence effectiveness AVEFA (Avena fatua [6]; 320 g/ha) [%]	Pre-emergence effectiveness SETVI (Setaria viridis [7]; 80 g/ha) [%]	Pre-emergence effectiveness SETVI (Setaria viridis [7]; 320 g/ha) [%]	Pre-emergence effectiveness ALOMY (Alopecurus myosuroides [8]; 320 g/ha) [%]	Pre-emergence effectiveness LOLMU (Lolium multiflorum [9]; 320 g/ha) [%]	Post-emergence effectiveness AVEFA (Avena fatua [10]; 80 g/ha) [%]	Pre-emergence effectiveness ALOMY (Alopecurus myosuroides [8]; 80 g/ha) [%]	Pre-emergence effectiveness LOLMU (Lolium multiflorum [9]; 80 g/ha) [%]	Post-emergence effectiveness AVEFA (Avena fatua [10]; 20 g/ha) [%]	Post-emergence effectiveness ALOMY (Alopecurus myosuroides [3]; 20 g/ha) [%]	Pre-emergence effectiveness AVEFA (Avena fatua [6]; 80 g/ha) [%]
COCC1CCC2(C1)NC(=O)C(c1c(C)cc(C#CC3CC3)cc1C)=C2O (mixture of isomers) [Example I-14]	90	100	90	90	80	90	90	100	100	80	90	90	100	100						
CC#Cc1cc(CC)c(C2=C(O)C3(CCC(CCOC)CC3)NC2=O)c(CC)c1 (centres unmarked) [Example I-1]	100	100	90	100	90	90	90	100	100	80	100	100	100	100	90	80	100			
CC#Cc1cc(C)c(C2=C(O)C3(CCC(COC)C3)NC2=O)c(CC)c1 (centres unmarked) [Example I-9]	100	100	100	100	100	100	100	100	100	90	90	100	100	100	100	100	80	90	100	
CC#Cc1cc(C)c(C2=C(O)C3(CCC(COC)C3)NC2=O)c(CC)c1 (centres unmarked) [Example I-10]	100	100	90	100	100	100	100	100	100	100	80	100	100	100	100	90	100	100	100	80
COCC1CCC2(C1)NC(=O)C(c1c(C)cc(C#CC3CC3)cc1C)=C2O (centres unmarked) [Example I-13]	90	90	90	90	80		90	100	100		90	100	100	90						
CC#Cc1cc(C)c(C2=C(OC(=O)C(C)C)C3(CCC(COC)C3)NC2=O)c(CC)c1 (centres unmarked) [Example Ia-6]	100	100		100	100	90	90	100	100	90	100	100	100	100		100	100			90
CC#Cc1cc(C)c(C2=C(OC(=O)C(C)C)C3(CCC(COC)C3)NC2=O)c(CC)c1 (centres unmarked) [Example Ia-7]	90	100		80	100		100	100			100					100	100			
CC#Cc1cc(C)c(C2=C(OC(=O)C(C)C)C3(CCC(COC)C3)NC2=O)c(CC)c1 (centres unmarked) [Example Ia-9]	100	100	100	100	100	90	90								90			90	100	
CCc1cc(C#CC2CC2)cc(C)c1C1=C(OC(=O)C(C)C)C2(CCC(COC)C2)NC1=O (centres unmarked) [Example Ia-11]	100	100	80	90	90		90	100	100	80	100	100	100	100		100	100			
CC#Cc1cc(CC)c(C2=C(OC(=O)C(C)C)C3(CCC(OCCOC)CC3)NC2=O)c(CC)c1 (centres unmarked) [Example Ia-13]	80	100		80				100	100	100	100	100	100	100		100	100			80
CC#Cc1cc(C)c(C2=C(OS(C)(=O)=O)C3(CCC(COC)C3)NC2=O)c(CC)c1 (centres unmarked) [Example Ia-16]								90	100		90	90	90	90		90				
